Experimental findings from the supplement of paper PMC10307832 are described below.

What all share (experiment): relative viability (nuclei count vs DMSO), 5 days (fraction); higher = more cells survive
Compound in experiment [1]: C1=CC2=C(C=CC(=C2)C=C3C(=O)NC(=NCC4=CC=CS4)S3)N=C1 [RO-3306] + CC1(C)CCC(c2ccc(Cl)cc2)=C(CN2CCN(c3ccc(C(=O)NS(=O)(=O)c4ccc(N[C@H](CCN5CCOCC5)CSc5ccccc5)c(S(=O)(=O)C(F)(F)F)c4)cc3)CC2)C1 [Navitoclax] (partner 0.5 µM)
The method, boiled down: (§1)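 Lung cancer cell lines, seeded in 1536-well plates, were treated the following day by pin tool with a single drug or with five library-drug doses (not always all listed) in √10 steps on top of a fixed anchor-drug dose. Cells were fixed and nuclei stained in one step after 5 days, and nuclei were counted. Relative viability is the nuclei count for treated wells divided by that for vehicle wells, reported as medians of duplicate plates.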

Compound in experiment [2]: O=S(=O)(c1ccccc1)N(CC(F)(F)F)c1ccc(C(O)(C(F)(F)F)C(F)(F)F)cc1 + CS(=O)(=O)CCNCc1ccc(-c2ccc3ncnc(Nc4ccc(OCc5cccc(F)c5)c(Cl)c4)c3c2)o1 [Lapatinib] (partner 2 µM)
The procedure, abridged:
as §1

Compound in experiment [3]: O=S(=O)(c1ccccc1)N(CC(F)(F)F)c1ccc(C(O)(C(F)(F)F)C(F)(F)F)cc1 + CS(=O)(=O)N1CCN(Cc2cc3nc(-c4cccc5[nH]ncc45)nc(N4CCOCC4)c3s2)CC1 [Pictilisib] (partner 1 µM)
The method, boiled down:
as §1

Compound in experiment [4]: C1=CC2=C(C=CC(=C2)C=C3C(=O)NC(=NCC4=CC=CS4)S3)N=C1 [RO-3306] + CC(=O)Nc1cccc(-n2c(=O)n(C3CC3)c(=O)c3c(Nc4ccc(I)cc4F)n(C)c(=O)c(C)c32)c1 [Trametinib] (partner 0.02 µM)
The procedure, abridged: as §1

In the case of UMC-11, the relative viability in experiment [1] (first compound 0.01 µM) came to 0.325; in experiment [1] (first compound 0.03162 µM), 0.312; in experiment [1] (first compound 0.1 µM), 0.305; in experiment [1] (first compound 0.3162 µM), 0.321; in experiment [1] (first compound 1 µM) it was 0.319; in experiment [2] (first compound 0.8 µM), 1.19. Also, the relative viability was 0.966 in experiment [2] (first compound 2.53 µM); 1.22 in experiment [2] (first compound 8 µM); 0.908 in experiment [3] (first compound 0.8 µM); 0.867 in experiment [3] (first compound 2.53 µM); 1.14 in experiment [3] (first compound 8 µM); 0.734 in experiment [4] (first compound 0.01 µM). In addition, the relative viability in experiment [4] (first compound 0.03162 µM) was found to be 0.679; in experiment [4] (first compound 0.1 µM), 0.641; in experiment [4] (first compound 0.3162 µM), 0.793; in experiment [4] (first compound 1 µM) it was 0.531.
